Reference: patent US11420947B2, “(S)-n-hydroxy-2-(2-(4-methoxyphenyl)butanamido)thiazole-5-carboxamide and pharmaceutically acceptable salts thereof” (TRANSLATIONAL DRUG DEVELOPMENT, LLC, priority 2018, dated 2022)

How the values were obtained:
Assay in all cases: CellTiter-Glo cell viability assay
Type in all cases: cell-based
A498 = conditions: for IC50: Homo sapiens, A498, RENAL, RCC-VHL mut, 72 hours
Outline: (§1)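 IC50 values represent 50% growth inhibition versus vehicle control, fitted by sigmoidal dose–response. Cells had 24 h to attach before a 72 h treatment, and viability was read as ATP luminescence.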

A549 = conditions: for IC50: Homo sapiens, A549, LUNG, NSCLC, 72 hours
Outline: as §1

AN3CA = conditions: for IC50: Homo sapiens, AN3-CA, AN3CA, ENDOMETRIAL, 72 hours
Outline: as §1

BT-20 = conditions: for IC50: Homo sapiens, BT-20, BREAST, Carcinoma, 72 hours
Outline: as §1

CCRF-CEM = conditions: for IC50: Homo sapiens, CCRF-CEM, HEMATOPIETIC, ALL, 72 hours
Outline: as §1

G401 = conditions: for IC50: Homo sapiens, G-401, G401, RENAL, Rhabdoid Tumor, 72 hours
Outline: as §1

G402 = conditions: for IC50: Homo sapiens, G-402, G402, RENAL, Renal leiomyoblastoma, 72 hours
Outline: as §1

H1650 = conditions: for IC50: Homo sapiens, NCI-H1650, H1650, LUNG, NSCLC, 72 hours
Outline: as §1

H358 = conditions: for IC50: Homo sapiens, NCI-H358, H358, LUNG, NSCLC, 72 hours
Outline: as §1

H460 = conditions: for IC50: Homo sapiens, NCI-H460, H460, LUNG, NSCLC, 72 hours
Outline: as §1

H660 = conditions: for IC50: NCI-H660, H660, PROSTATE, LN Met, 72 hours
Outline: as §1

Ishikawa = conditions: for IC50: Homo sapiens, Ishikawa, ENDOMETRIAL, 72 hours
Outline: as §1

J1M-1 = conditions: for IC50: J1M-1, HEMATOPIETIC, MM, 72 hours
Outline: as §1

MCF7 = conditions: for IC50: Homo sapiens, MCF7, BREAST, ER + BCC, 72 hours
Outline: as §1

MDA-MB-231 = conditions: for IC50: Homo sapiens, MDA-MB-231, BREAST, TNBC, 72 hours
Outline: as §1

MOLP-8 = conditions: for IC50: Homo sapiens, MOLP-8, HEMATOPIETIC, MM, 72 hours
Outline: as §1

MiaPaCa = conditions: for IC50: Homo sapiens, MIA PaCa-2, MiaPaCa, PANCREAS, Pancreatic, 72 hours
Outline: as §1

NCI-H1963 = conditions: for IC50: Homo sapiens, NCI-H1963, LUNG, Carcinoma, 72 hours
Outline: as §1

NCI-H209 = conditions: for IC50: Homo sapiens, NCI-H209, LUNG, Carcinoma, 72 hours
Outline: as §1

Nalm-6 = conditions: for IC50: Homo sapiens, Nalm-6, HEMATOPIETIC, ALL, 72 hours
Outline: as §1

RXF-393 = conditions: for IC50: Homo sapiens, RXF-393, RENAL, RCC, 72 hours
Outline: as §1

SUM149PT = conditions: for IC50: Homo sapiens, SUM149PT, BREAST, IBC, 72 hours
Outline: as §1

SiHa = conditions: for IC50: Homo sapiens, SiHa, CERVICAL-SQUAMOUS CELL, 72 hours
Outline: as §1

Y79 = conditions: for IC50: Homo sapiens, Y79, RETINOBLASTOMA, Retina, 72 hours
Outline: as §1

YAPC = conditions: for IC50: Homo sapiens, YAPC, PANCREAS, Pancreatic, 72 hours
Outline: as §1

## CCC(C(=O)Nc1ncc(C(=O)NO)s1)c1ccc(OC)cc1 (racemic) [#1, N-hydroxy-2-(2-(4-methoxyphenyl)butanamido)thiazole-5-carboxamide]
A498
  IC50: 63 nM
A549
  IC50: 76 nM
AN3CA
  IC50: 66 nM
BT-20
  IC50: 236 nM
CCRF-CEM
  IC50: 28 nM
G401
  IC50: 91 nM
G402
  IC50: 102 nM
H1650
  IC50: 363 nM
H358
  IC50: 158 nM
H460
  IC50: 79 nM
H660
  IC50: 158 nM
Ishikawa
  IC50: 48 nM
J1M-1
  IC50: 47 nM
MCF7
  IC50: 39 nM
MDA-MB-231
  IC50: 113 nM
MOLP-8
  IC50: 13 nM
MiaPaCa
  IC50: 51 nM
NCI-H1963
  IC50: 196 nM
NCI-H209
  IC50: 110 nM
Nalm-6
  IC50: 26 nM
RXF-393
  IC50: 398 nM
SUM149PT
  IC50: 191 nM
SiHa
  IC50: 311 nM
Y79
  IC50: 363 nM
YAPC
  IC50: 437 nM

## CC[C@H](C(=O)Nc1ncc(C(=O)NO)s1)c1ccc(OC)cc1 [#1a, (S)—N-hydroxy-2-(2-(4-methoxyphenyl)butanamido)thiazole-5-carboxamide]
A498
  IC50: 47 nM
A498; ratio of IC50, A498
  #1/#1a: 1.34
  #1b/#1a: 7.49
A549
  IC50: 52 nM
A549; ratio of IC50, A549
  #1/#1a: 1.46
  #1b/#1a: 7.65
AN3CA
  IC50: 47 nM
AN3CA; ratio of IC50, AN3CA
  #1/#1a: 1.4
  #1b/#1a: 4.87
BT-20
  IC50: 93 nM
BT-20; ratio of IC50, BT-20
  #1/#1a: 2.54
  #1b/#1a: 8.16
CCRF-CEM
  IC50: 14 nM
CCRF-CEM; ratio of IC50, CCRF-CEM
  #1/#1a: 2
  #1b/#1a: 8.07
G401
  IC50: 50 nM
G401; ratio of IC50, G401
  #1/#1a: 1.82
  #1b/#1a: 8.14
G402
  IC50: 65 nM
G402; ratio of IC50, G402
  #1/#1a: 1.57
  #1b/#1a: 7.71
H1650
  IC50: 174 nM
H1650; ratio of IC50, H1650
  #1/#1a: 2.09
  #1b/#1a: 6.91
H358
  IC50: 69 nM
H358; ratio of IC50, H358
  #1/#1a: 2.29
  #1b/#1a: 8.09
H460
  IC50: 50 nM
H460; ratio of IC50, H460
  #1/#1a: 1.58
  #1b/#1a: 7.26
H660
  IC50: 28 nM
H660; ratio of IC50, H660
  #1/#1a: 5.64
  #1b/#1a: 15.11
Ishikawa
  IC50: 28 nM
Ishikawa; ratio of IC50, Ishikawa
  #1/#1a: 1.71
  #1b/#1a: 6.82
J1M-1
  IC50: 26 nM
J1M-1; ratio of IC50, J1M-1
  #1/#1a: 1.81
  #1b/#1a: 8.42
MCF7
  IC50: 21 nM
MCF7; ratio of IC50, MCF7
  #1/#1a: 1.86
  #1b/#1a: 7.52
MDA-MB-231
  IC50: 62 nM
MDA-MB-231; ratio of IC50, MDA-MB-231
  #1/#1a: 1.82
  #1b/#1a: 10.42
MOLP-8
  IC50: 13 nM
MOLP-8; ratio of IC50, MOLP-8
  #1/#1a: 1
  #1b/#1a: 2.46
MiaPaCa
  IC50: 35 nM
MiaPaCa; ratio of IC50, MiaPaCa
  #1/#1a: 1.46
  #1b/#1a: 8.26
NCI-H1963
  IC50: 26 nM
NCI-H1963; ratio of IC50, NCI-H1963
  #1/#1a: 7.54
  #1b/#1a: 15.65
NCI-H209
  IC50: 16 nM
NCI-H209; ratio of IC50, NCI-H209
  #1/#1a: 6.88
  #1b/#1a: 15.69
Nalm-6
  IC50: 11 nM
Nalm-6; ratio of IC50, Nalm-6
  #1/#1a: 2.36
  #1b/#1a: 8.27
RXF-393
  IC50: 113 nM
RXF-393; ratio of IC50, RXF-393
  #1/#1a: 3.52
  #1b/#1a: 7.82
SUM149PT
  IC50: 74 nM
SUM149PT; ratio of IC50, SUM149PT
  #1/#1a: 2.58
  #1b/#1a: 8.27
SiHa
  IC50: 307 nM
SiHa; ratio of IC50, SiHa
  #1/#1a: 1.01
  #1b/#1a: 8.91
Y79
  IC50: 87 nM
Y79; ratio of IC50, Y79
  #1/#1a: 4.17
  #1b/#1a: 7.25
YAPC
  IC50: 215 nM
YAPC; ratio of IC50, YAPC
  #1/#1a: 2.03
  #1b/#1a: 9.13

## CC[C@@H](C(=O)Nc1ncc(C(=O)NO)s1)c1ccc(OC)cc1 [#1b, (R)—N-hydroxy-2-(2-(4-methoxyphenyl)butanamido)thiazole-5-carboxamide]
A498
  IC50: 352 nM
A549
  IC50: 398 nM
AN3CA
  IC50: 229 nM
BT-20
  IC50: 759 nM
CCRF-CEM
  IC50: 113 nM
G401
  IC50: 407 nM
G402
  IC50: 501 nM
H1650
  IC50: 1200 nM
H358
  IC50: 558 nM
H460
  IC50: 363 nM
H660
  IC50: 423 nM
Ishikawa
  IC50: 191 nM
J1M-1
  IC50: 219 nM
MCF7
  IC50: 158 nM
MDA-MB-231
  IC50: 646 nM
MOLP-8
  IC50: 32 nM
MiaPaCa
  IC50: 289 nM
NCI-H1963
  IC50: 407 nM
NCI-H209
  IC50: 251 nM
Nalm-6
  IC50: 91 nM
RXF-393
  IC50: 884 nM
SUM149PT
  IC50: 612 nM
SiHa
  IC50: 2740 nM
Y79
  IC50: 631 nM
YAPC
  IC50: 1960 nM
